Consider three compounds from patent US20250082634A1, “PIM KINASE INHIBITORS FOR TREATMENT OF MYELOPROLIFERATIVE NEOPLASMS AND FIBROSIS ASSOCIATED WITH CANCER” (Sumitomo Pharma America, Inc., priority 2018, published 2025).

Structures are written as SMILES.

Data set [1] concerns BA/F3 cells expressing wild type JAK2. Kind of data set: Cell proliferation by viable cell counts. It is filed as cell-based, murine. The conditions noted are these: wild-type JAK2, higher concentrations, 5 days.
Data set [2] relates to HSC maintenance, TNFα and WNT signaling pathways. Kind of data set: RNA-sequencing of LSK cells from treated homozygous JAK2 V617F mice. It is filed as in vivo, mouse. The note with it: purified LSK cells, compared with vehicle.
Data set [3] has as its system PC3 cells. The experiment in a line: Colony formation assay of prostate adenocarcinoma. Type of data set: cell-based. The note with it: Homo sapiens, PC-3; RPMI, pyruvate, 0.5% FBS; read-out: EC50 against PC3 cells (colony formation). The procedure:
PC3 cells were seeded in Roswell Park Memorial Institute (RPMI) media with pyruvate and 10% fetal bovine serum (FBS).

The test system of data set [4] is BA/F3 cells expressing wild type JAK2. Kind of data set: Apoptosis by Annexin V staining and flow cytometry. It is filed as cell-based. The conditions noted are these: 48 hours after treatment. (In general: Flow cytometry measures light scatter and fluorescence of single cells or particles in a stream.)
Data set [5] deals with PIM 3 (Homo sapiens, UniProt Q86V86). The experiment in a line: PIM kinase biochemical profile (Ki).
Data set [6] concerns JAK2 V617F-positive UKE-1 cells. Kind of data set: Cell proliferation by viable cell counts. It is filed as cell-based, human. The note with it: 5 days.
Data set [7] relates to parental BA/F3 cells. The experiment in a line: Cell proliferation. It is filed as cell-based, murine.
Data set [8] addresses PIM 2 (Homo sapiens, UniProt Q9P1W9). The experiment in a line: PIM kinase biochemical profile (Ki).
Data set [9] relates to homozygous JAK2 V617F knock-in mouse model of MF. Kind of data set: Homozygous JAK2 V617F knock-in mouse model of MF. It is filed as in vivo. The procedure:
Bone marrow cells from homozygous JAK2 V617F knock-in mice were transplanted into lethally irradiated C57BL/6 recipients to obtain a cohort of MF mice with similar age. […] All mice were treated for 6 weeks.

Data set [10] relates to PC3 prostate adenocarcinoma xenograft. Kind of data set: PC3 prostate adenocarcinoma mouse xenograft model. Type of data set: in vivo.
For data set [11], the system named is dogs. Kind of data set: Non-GLP toxicology studies in dogs (7-day repeat). Type of data set: in vivo. As to the method: (§1) Dose calculations were determined from GLP toxicology studies in rats and non-GLP toxicology studies in dogs.
In dogs, the highest non-severely toxic dose was not observed in 7-day repeat studies at doses as high as 200 mg/kg, which equates to 7400 mg per person or greater, calculated as: […]

Data set [12] has as its system rats. The experiment in a line: GLP toxicology studies in rats. Type of data set: in vivo, rat. The procedure: as §1
Data set [13] concerns BA/F3-EpoR-JAK2 V617F cells. The experiment in a line: Cell proliferation by viable cell counts. Set-up: dose or concentration left out as unconfirmed. It is filed as cell-based, murine. The note with it: Compound 1, 5 days.
For data set [14], the system named is MPL mutant (MPL W515L) mice. The experiment in a line: MPL W515L transplantation mouse model. It is filed as in vivo. An excerpt: (§2) These animals rapidly develop marked thrombocytosis and leukocytosis. At the time of sacrifice, MPL W515L expressing mice show splenomegaly and bone marrow fibrosis.
The test system of data set [15] is phospho-BAD. The experiment in a line: Reduction of phospho-BAD (PIM-1 biomarker). It is filed as cell-based. The note with it: compared to Compound A. An excerpt:
The results of this assay are illustrated as a plot of the % of the control against the compound concentration (FIG. 15).

In data set [16] the test system is BA/F3 MPL W515L cells. Kind of data set: Cell proliferation. Type of data set: cell-based, murine. The note with it: 0.25-1 μM.
Description: as §2

In data set [17] the target is PIM 1 (Homo sapiens, UniProt P11309). Kind of data set: PIM kinase biochemical profile (Ki).
Data set [18] deals with JAK2 V617F-positive HEL cells. Kind of data set: Cell proliferation by viable cell counts. It is filed as cell-based, human. The conditions noted are these: 5 days.
Data set [19] is described as follows: Metabolic stability. The conditions noted are these: compared to Compound A. Type of data set: in vitro ADME.
The target in data set [20] is Flt3 (Homo sapiens, UniProt P36888). Kind of data set: Flt3 inhibition (IC50). It is filed as biochemical.
The subject of data set [21] is healthy control CD34+ cells. Kind of data set: Hematopoietic progenitor colony assay in methylcellulose. It is filed as cell-based, human. The conditions noted are these: 1-2 μM, 14 days. An excerpt: (§3) Hematopoietic progenitor colonies were counted after 14 days.
For data set [22], the system named is MPN patient CD34+ hematopoietic progenitor cells. The data set is described as above. It is filed as cell-based, human. The conditions noted are these: 1-2 μM, colonies counted after 14 days.
Description: as §3

The subject of data set [23] is ruxolitinib-resistant BA/F3-EpoR-JAK2 V617F cells. Kind of data set: Proliferation of ruxolitinib-resistant cells by viable cell counts. It is filed as cell-based. The conditions noted are these: ruxolitinib 0.5-2 μM or Compound 1 0.25-1 μM, 5 days.
In data set [24] the test system is HEL, BA/F3-EpoR-JAK2 V617F, UKE-1 and SET-2 cells expressing JAK2 V617F. The experiment in a line: Apoptosis by Annexin V staining and flow cytometry. It is filed as cell-based. The conditions noted are these: 48 hours after treatment, JAK2 V617F-expressing cell lines.
For data set [25], the system named is SET-2 cells. The experiment in a line: Cell proliferation by viable cell counts. Type of data set: cell-based. The conditions noted are these: 5 days.
Data set [26] has as its system Phosphorylation of STAT5. Kind of data set: STAT5 phosphorylation immunoblot in ruxolitinib-resistant cells. It is filed as cell-based. The conditions noted are these: ruxolitinib 0.5-2 μM. A general note: Immunoblotting shows a protein as a band on a membrane.
The mark [27] stands for this setting: Compound 1 150 mg/kg, ruxolitinib 60 mg/kg, oral gavage once daily, 6 weeks.

Chain of Flt3 (P36888 27-993, species assumed): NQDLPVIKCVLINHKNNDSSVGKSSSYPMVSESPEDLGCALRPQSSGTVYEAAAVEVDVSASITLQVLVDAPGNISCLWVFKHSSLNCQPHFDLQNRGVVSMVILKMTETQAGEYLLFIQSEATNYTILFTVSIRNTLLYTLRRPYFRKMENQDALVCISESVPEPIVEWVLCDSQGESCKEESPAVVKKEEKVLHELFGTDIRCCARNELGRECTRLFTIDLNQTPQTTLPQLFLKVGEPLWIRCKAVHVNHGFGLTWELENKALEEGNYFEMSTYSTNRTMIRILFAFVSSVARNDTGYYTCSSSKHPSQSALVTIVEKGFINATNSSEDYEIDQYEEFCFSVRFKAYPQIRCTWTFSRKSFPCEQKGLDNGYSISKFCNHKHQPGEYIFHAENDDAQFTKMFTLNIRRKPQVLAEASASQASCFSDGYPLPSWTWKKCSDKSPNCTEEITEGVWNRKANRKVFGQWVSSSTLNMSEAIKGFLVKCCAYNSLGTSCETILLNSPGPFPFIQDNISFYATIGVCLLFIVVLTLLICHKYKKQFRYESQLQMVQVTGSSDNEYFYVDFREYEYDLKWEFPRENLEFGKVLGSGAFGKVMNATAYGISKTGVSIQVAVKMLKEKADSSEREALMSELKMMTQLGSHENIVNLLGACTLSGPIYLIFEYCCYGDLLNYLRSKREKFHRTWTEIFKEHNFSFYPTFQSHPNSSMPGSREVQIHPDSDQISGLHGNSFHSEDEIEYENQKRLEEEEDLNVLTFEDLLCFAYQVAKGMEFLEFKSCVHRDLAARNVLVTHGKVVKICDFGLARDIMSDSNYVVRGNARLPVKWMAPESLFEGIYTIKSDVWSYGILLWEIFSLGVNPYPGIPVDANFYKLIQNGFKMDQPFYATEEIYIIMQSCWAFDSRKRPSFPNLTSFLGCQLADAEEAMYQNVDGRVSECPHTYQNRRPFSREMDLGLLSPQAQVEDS
Chain of PIM 1 (P11309 whole entry, species assumed): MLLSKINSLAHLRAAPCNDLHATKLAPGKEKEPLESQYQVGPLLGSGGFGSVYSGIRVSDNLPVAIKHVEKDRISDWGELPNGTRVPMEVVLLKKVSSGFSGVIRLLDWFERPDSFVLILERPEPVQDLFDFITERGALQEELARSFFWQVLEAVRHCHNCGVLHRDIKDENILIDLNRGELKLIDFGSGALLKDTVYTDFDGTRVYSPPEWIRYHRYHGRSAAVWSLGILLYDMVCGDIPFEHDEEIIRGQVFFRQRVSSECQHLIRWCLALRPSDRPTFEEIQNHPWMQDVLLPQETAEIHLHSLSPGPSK
Chain of PIM 2 (Q9P1W9 whole entry, species assumed): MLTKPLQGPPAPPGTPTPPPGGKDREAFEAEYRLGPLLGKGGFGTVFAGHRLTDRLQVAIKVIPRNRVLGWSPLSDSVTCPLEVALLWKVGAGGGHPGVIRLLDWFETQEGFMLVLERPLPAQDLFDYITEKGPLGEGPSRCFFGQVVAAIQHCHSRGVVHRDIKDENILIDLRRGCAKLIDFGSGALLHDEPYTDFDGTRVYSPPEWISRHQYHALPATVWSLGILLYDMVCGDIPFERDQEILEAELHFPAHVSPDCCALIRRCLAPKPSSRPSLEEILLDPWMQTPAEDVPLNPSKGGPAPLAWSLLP

As to `CC(C)(O)[C@H]1CC[C@H](Nc2ccc3ncc(-c4cccc(C(F)(F)F)c4)n3n2)CC1` [Compound 1, 2-((1R,4R)-4-((3-(3-(trifluoromethyl)phenyl)imidazo[1,2-b]pyridazin-6-yl)amino)cyclohexyl)propan-2-ol], the inhibition of proliferation result in data set [1] is listed as “only modestly inhibited”; in data set [6] it was “markedly inhibited”; in [18] it was “markedly inhibited”; in data set [25], “dose dependent inhibition”. In data set [2], the “expression of genes relating to HSC maintenance, TNFα and WNT signaling pathways” value was “significantly downregulated”. Besides, in data set [3], the EC50 stood at 143 nM. The “apoptosis (Annexin V)” value in data set [4] was “not in wild type JAK2-expressing BA/F3 cells”; in data set [24], “significant apoptosis”. The Ki worked out at 42 nM in data set [5], 239 nM in data set [8] and 5 nM in [17]. For the same compound, in data set [7], the concentration reducing proliferation result was “greater than 1 M”. For the same compound, the “fibrosis in bone marrow and spleen (reticulin staining)” value in data set [9] (Compound 1 150 mg/kg, ruxolitinib 60 mg/kg, 6 weeks) is given as “marked reduction of fibrosis”. In addition, the neutrophil counts result in data set [9] (setting [27]) is on record as “caused reduction”. The “peripheral blood white blood cell (WBC) counts” value in data set [9] (setting [27]) is reported as “caused reduction”. The spleen size entry in data set [9] (homozygous JAK2 V617F mice, versus vehicle) was “significantly reduces”. Moreover, the “human equivalent of efficacious dose level in mouse myelofibrosis model (150 mg/kg)” value in [9] (per person) is on record as 925 mg. Also, the “percentage of tumor growth inhibition (% TGI)” value is recorded as 59% in data set [10] (125 mg/kg) and 40% in [10] (200 mg/kg). For the same compound, the “highest non-severely toxic dose” value in data set [11] (dog, 7-day repeat studies, not observed at doses as high as) is recorded as at least 200 mg/kg. In addition, the “human equivalent of dog highest non-severely toxic dose” value in data set [11] (per person) was at least 7400 mg. In addition, the “human equivalent of rat severely toxic dose in 10 percent of animals” value in data set [12] (average per person) worked out at 5286 mg. In addition, the “severely toxic dose in 10 percent of animals” value in data set [12] (rat, GLP toxicology) amounted to 500 mg/kg. In addition, the reduction of proliferation in data set [13] is around 90%; in data set [16], “significantly reduced”. For the same compound, the splenomegaly entry in [14] is recorded as “significant decrease”. In addition, the “potency at reducing phospho-BAD” value in [15] was “more potent”. The metabolic stability result in data set [19] is listed as “improved metabolic stability”. The compound also had an IC50 in data set [20] of 279 nM. The “effect on hematopoietic progenitor colonies” value in data set [21] is “minimal effect”. In addition, in [22], the “inhibition of hematopoietic progenitor colonies” value is recorded as “significantly inhibited”. The “inhibition of cell proliferation” value in [23] is reported as “markedly inhibited”.

With `CN1CCC(CNc2ccc3ncc(-c4cccc(OC(F)(F)F)c4)n3n2)CC1` [Compound A, reference compound], the affinity in data set [5], expressed as Ki, was 20 nM. In addition, the IC50 in data set [20] came to 3 nM.

In the case of `N#CC[C@H](C1CCCC1)n1cc(-c2ncnc3[nH]ccc23)cn1` [ruxolitinib], in data set [26], the “inhibition of STAT5 phosphorylation” value is “not inhibited”.

By EC50 is commonly meant the concentration needed to bring the measured effect to its halfway point. By Ki is commonly meant a measure of affinity in units of concentration, obtained from inhibition or displacement. The IC50 is the point on the concentration scale where inhibition reaches its midpoint.
